The results in this text go back to ChEMBL document CHEMBL4334526, “Synthesis of Peptoid-Based Class I-Selective Histone Deacetylase Inhibitors with Chemosensitizing Properties” (J Med Chem, 2019).

Assay [1] addresses T1, Histone deacetylase 2 (Homo sapiens, UniProt Q92769). Kind of assay: Inhibition of recombinant human full length C-terminal FLAG-tagged HDAC2 expressed in baculovirus infected Sf9 insect cells at 10 uM using Boc-Lys(epsilon-acetyl)-AMC as substrate incubated for 90 mins by fluorescence assay relative to control.
In assay [2] the target is Histone deacetylase 3/Nuclear receptor corepressor 2 (HDAC3/NCoR2) (Homo sapiens) (UniProt O15379+Q9Y618). The experiment in a line: Inhibition of human recombinant full length C-terminal His-tagged HDAC3 (1 to 428 residues)/N-terminal GST-tagged NCOR2 (395 to 489 residues) expressed in baculovirus infected Sf9 insect cells at 10 uM using Boc-Lys(epsilon-acetyl)-AMC as substrate incubated for 90 mins by fluorescence assay relative to control.

For assay [3], the target named is T2, Protein deacetylase HDAC6 (Homo sapiens, UniProt Q9UBN7).
T2 sequence (Q9UBN7 whole entry): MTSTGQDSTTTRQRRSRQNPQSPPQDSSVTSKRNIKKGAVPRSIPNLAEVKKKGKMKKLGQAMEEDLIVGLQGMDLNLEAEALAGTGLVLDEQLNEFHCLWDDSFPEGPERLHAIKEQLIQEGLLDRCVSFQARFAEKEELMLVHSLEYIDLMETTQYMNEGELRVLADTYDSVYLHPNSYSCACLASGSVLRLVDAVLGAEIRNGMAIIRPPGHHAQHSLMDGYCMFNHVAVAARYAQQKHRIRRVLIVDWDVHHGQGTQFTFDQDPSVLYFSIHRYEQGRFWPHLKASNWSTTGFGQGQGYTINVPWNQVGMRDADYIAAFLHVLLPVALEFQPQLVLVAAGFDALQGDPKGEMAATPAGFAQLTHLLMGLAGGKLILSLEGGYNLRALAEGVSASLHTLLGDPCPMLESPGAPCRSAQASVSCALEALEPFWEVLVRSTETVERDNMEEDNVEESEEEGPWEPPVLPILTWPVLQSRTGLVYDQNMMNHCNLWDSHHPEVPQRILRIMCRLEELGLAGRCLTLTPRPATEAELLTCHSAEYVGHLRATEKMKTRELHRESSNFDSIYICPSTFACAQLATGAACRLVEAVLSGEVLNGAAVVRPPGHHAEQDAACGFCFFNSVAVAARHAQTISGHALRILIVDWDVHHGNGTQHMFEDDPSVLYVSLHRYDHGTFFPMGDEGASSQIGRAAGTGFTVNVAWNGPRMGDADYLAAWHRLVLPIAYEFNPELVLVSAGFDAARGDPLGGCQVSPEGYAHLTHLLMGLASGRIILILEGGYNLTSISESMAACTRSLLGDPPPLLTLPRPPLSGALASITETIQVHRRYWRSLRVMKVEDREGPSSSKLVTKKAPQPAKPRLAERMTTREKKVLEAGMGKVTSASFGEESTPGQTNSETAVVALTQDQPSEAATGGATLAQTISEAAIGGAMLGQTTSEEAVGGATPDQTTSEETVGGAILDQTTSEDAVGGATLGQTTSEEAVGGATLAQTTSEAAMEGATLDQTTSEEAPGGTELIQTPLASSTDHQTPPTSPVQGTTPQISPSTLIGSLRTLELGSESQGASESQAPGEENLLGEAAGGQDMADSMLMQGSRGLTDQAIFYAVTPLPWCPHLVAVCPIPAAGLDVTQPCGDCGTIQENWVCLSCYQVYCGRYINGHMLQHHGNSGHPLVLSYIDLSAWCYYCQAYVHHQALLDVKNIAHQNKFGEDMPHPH
Kind of assay: Inhibition of human full length N-terminal GST-tagged HDAC6 expressed in baculovirus infected Sf9 insect cells ZMAL as substrate incubated for 90 mins by fluorescence assay. It is filed as cell-based.

A further assay deals with Histone deacetylase 1 (Homo sapiens, UniProt Q13547). The experiment in a line: Inhibition of recombinant human full length C-terminal His/FLAG-tagged HDAC1 expressed in baculovirus infected Sf9 insect cells using ZMAL as substrate incubated for 90 mins by fluorescence assay.
In assay [4] the test system is A2780. The experiment in a line: Cytotoxicity against human A2780 cells assessed as reduction in cell survival measured after 72 hrs by MTT assay. The note with it: A2780, 72 h. It is filed as functional, cell-based. On the technique in general: Formazan colour is commonly taken as a measure of viable cells.
Assay [5] has as its system CAL-27. The experiment in a line: Cytotoxicity against human CAL27 cells assessed as reduction in cell survival measured after 72 hrs by MTT assay. It is filed as functional, cell-based. The settings on record: CAL-27, 72 h.
Assay [6] addresses Histone deacetylase. Kind of assay: Inhibition of HDAC in human A2780 cells using Boc-Lys(epsilon-Ac)-AMC as substrate preincubated for 18 hrs followed by substrate addition and measured after 3 hrs by fluorescence assay. It is filed as cell-based.
Assay [7] concerns the target Histone deacetylase. Kind of assay: Inhibition of HDAC in human CAL27 cells using Boc-Lys(epsilon-Ac)-AMC as substrate preincubated for 18 hrs followed by substrate addition and measured after 3 hrs by fluorescence assay. It is filed as cell-based.
Assay [8] deals with Histone deacetylase 3/Nuclear receptor corepressor 2 (HDAC3/NCoR2) (Homo sapiens, UniProt O15379). The experiment in a line: biochemical. In kind it is cell-based, Sf9.
Description: Inhibition of human recombinant full length C-terminal His-tagged HDAC3 (1 to 428 residues)/N-terminal GST-tagged NCOR2 (395 to 489 residues) expressed in baculovirus infected Sf9 insect cells using Boc-Lys(epsilon-acetyl)-AMC as substrate incubated for 90 mins by fluorescence assay
In assay [9] the target is T1, Histone deacetylase 2. The experiment in a line: Inhibition of recombinant human full length C-terminal FLAG-tagged HDAC2 expressed in baculovirus infected Sf9 insect cells using Boc-Lys(epsilon-acetyl)-AMC as substrate incubated for 90 mins by fluorescence assay. It is filed as cell-based.
Assay [10] deals with CAL-27. The experiment in a line: Potency index, ratio of vorinostat IC50 to test compound IC50 for cytotoxicity against human CAL27 cells. It is filed as functional.
Assay [11] deals with T1, Histone deacetylase 2. The experiment in a line: Inhibition of recombinant human full length C-terminal FLAG-tagged HDAC2 expressed in baculovirus infected Sf9 insect cells at 3.33 uM using Boc-Lys(epsilon-acetyl)-AMC as substrate incubated for 90 mins by fluorescence assay relative to control.
The subject of assay [12] is A2780. The experiment in a line: Cytotoxicity against human A2780 cells assessed as reduction in cell survival up to 100 uM measured after 72 hrs by MTT assay. It is filed as functional, cell-based.

Calls of active or inactive are those of the source. No cut-off for these calls is given here.

The inhibition is the relative decrease from the control value, in per cent. A word on the IC50: it is the concentration needed to halve the response being measured.

T1 sequence (Q92769 whole entry, the tested form may be a part): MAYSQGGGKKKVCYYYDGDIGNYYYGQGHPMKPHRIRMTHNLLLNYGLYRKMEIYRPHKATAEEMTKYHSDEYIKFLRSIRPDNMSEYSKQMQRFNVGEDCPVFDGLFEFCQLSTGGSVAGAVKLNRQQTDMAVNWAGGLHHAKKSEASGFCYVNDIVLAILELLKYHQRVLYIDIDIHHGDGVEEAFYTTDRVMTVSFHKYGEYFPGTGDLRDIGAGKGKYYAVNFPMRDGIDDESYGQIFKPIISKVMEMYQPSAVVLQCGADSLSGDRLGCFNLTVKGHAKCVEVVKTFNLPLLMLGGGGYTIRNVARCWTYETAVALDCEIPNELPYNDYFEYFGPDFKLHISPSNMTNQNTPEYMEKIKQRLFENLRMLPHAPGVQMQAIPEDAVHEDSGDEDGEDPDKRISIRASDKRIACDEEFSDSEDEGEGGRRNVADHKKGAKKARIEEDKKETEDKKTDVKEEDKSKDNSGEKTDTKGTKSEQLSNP
Chain of Histone deacetylase 1 (Q13547 whole entry): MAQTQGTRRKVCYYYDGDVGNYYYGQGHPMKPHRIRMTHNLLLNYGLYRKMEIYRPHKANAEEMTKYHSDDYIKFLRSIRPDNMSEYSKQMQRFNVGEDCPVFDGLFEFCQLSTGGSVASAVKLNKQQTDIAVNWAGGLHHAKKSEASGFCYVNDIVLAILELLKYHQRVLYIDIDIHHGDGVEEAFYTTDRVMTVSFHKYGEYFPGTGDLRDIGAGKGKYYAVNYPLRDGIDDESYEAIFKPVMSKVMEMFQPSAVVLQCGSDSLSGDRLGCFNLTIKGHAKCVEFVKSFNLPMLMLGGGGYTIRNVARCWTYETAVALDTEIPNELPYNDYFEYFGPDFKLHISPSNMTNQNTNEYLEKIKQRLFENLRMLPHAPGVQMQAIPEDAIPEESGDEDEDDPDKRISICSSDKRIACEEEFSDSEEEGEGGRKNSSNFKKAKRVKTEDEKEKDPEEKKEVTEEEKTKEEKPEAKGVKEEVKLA
Chain of Histone deacetylase 3/Nuclear receptor corepressor 2 (HDAC3/NCoR2) (O15379 whole entry): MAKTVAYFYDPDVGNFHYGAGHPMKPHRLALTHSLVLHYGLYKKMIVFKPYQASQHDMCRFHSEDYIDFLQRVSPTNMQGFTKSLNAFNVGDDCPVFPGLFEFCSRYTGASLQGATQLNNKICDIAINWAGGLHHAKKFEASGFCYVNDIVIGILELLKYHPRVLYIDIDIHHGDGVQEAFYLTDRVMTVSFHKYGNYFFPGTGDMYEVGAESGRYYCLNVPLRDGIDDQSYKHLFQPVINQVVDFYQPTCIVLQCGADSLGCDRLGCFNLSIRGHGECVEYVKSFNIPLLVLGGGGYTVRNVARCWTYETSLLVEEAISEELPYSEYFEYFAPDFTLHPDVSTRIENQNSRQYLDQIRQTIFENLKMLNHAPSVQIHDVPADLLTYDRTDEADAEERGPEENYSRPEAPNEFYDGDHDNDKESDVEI
Chain of Histone deacetylase 3/Nuclear receptor corepressor 2 (HDAC3/NCoR2) (Q9Y618 whole entry, further chain): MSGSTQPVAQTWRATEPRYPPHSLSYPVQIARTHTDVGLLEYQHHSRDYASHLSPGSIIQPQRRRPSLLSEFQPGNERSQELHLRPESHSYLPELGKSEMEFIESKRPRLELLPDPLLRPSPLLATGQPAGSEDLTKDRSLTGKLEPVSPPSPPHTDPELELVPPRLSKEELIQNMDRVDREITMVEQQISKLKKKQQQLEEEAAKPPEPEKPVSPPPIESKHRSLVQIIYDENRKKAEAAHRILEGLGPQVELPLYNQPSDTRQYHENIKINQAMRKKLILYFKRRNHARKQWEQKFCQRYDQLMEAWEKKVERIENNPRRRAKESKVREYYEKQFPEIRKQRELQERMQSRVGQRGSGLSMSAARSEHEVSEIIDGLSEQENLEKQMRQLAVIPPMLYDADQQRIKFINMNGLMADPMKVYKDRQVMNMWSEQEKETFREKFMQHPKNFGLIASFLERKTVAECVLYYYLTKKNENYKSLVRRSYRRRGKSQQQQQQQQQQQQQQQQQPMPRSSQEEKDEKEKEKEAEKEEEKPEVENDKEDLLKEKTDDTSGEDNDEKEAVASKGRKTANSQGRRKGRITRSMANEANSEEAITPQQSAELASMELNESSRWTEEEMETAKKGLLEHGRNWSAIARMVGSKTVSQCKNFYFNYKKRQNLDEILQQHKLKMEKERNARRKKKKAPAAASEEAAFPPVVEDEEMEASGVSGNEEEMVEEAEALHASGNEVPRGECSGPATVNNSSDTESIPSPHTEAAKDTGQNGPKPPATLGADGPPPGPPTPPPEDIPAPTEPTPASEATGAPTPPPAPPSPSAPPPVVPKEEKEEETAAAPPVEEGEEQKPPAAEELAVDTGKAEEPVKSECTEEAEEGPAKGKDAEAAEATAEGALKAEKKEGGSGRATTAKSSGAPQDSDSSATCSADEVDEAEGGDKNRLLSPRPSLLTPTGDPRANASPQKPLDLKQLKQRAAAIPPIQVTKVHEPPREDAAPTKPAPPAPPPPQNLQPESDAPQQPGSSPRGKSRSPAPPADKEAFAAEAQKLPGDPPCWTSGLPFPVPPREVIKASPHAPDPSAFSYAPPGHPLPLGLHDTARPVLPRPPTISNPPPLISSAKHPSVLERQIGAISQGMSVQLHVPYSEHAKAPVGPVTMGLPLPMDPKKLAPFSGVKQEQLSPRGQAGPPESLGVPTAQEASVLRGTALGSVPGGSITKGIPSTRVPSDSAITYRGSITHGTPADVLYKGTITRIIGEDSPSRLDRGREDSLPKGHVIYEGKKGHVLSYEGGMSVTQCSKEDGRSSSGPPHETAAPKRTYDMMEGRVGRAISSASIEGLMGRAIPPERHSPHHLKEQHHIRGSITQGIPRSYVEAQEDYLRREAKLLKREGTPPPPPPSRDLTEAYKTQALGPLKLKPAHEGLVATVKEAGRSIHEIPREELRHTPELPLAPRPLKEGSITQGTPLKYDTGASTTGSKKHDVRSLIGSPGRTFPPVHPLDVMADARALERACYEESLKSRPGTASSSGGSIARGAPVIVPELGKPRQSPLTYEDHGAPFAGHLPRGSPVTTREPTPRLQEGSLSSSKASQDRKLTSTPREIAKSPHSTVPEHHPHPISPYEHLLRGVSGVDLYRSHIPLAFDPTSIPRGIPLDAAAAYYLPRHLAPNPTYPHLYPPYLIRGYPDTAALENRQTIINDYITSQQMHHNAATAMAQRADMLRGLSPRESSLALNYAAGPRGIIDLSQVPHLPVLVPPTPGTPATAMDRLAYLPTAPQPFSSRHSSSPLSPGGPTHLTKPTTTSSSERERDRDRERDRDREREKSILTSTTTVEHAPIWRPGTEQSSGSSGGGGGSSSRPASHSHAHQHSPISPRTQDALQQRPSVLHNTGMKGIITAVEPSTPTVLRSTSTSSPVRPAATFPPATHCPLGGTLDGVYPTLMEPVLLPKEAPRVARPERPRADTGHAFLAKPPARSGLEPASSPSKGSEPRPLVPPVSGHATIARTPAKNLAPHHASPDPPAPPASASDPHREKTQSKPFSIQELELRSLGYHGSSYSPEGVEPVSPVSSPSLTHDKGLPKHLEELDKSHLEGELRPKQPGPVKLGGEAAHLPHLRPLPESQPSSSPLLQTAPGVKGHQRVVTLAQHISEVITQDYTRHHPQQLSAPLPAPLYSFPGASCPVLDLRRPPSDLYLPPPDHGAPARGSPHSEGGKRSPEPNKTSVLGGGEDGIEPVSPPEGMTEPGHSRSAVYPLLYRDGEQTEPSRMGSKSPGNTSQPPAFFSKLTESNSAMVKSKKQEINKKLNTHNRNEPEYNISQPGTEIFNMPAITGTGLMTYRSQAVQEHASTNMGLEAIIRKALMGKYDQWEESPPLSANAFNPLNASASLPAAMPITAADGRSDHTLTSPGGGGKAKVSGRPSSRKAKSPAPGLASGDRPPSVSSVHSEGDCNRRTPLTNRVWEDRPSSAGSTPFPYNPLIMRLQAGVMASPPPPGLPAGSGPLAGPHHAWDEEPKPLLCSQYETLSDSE

Consider `COc1ccc(CNC(=O)CN(CCCCCC(=O)Nc2ccccc2N)C(=O)c2cc(C)cc(C)c2)cc1`, for which the inhibition at Histone deacetylase 2 [1] was 30%; in assay [2], 49%. Moreover, the half-inhibitory concentration (IC50) is above 10 µM in assay [3]; 2.08 µM on Histone deacetylase 1; 24.6 µM with A2780 [4]; 17.4 µM in the assay with CAL-27 [5]; 3.53 µM against Histone deacetylase [6]; 4.81 µM against Histone deacetylase [7].
As for `Cc1cc(C)cc(CNC(=O)CN(CCCCCC(=O)Nc2ccccc2N)C(=O)c2cc(C)cc(C)c2)c1`, the IC50 in assay [3] was above 10 µM; in [8] it was 0.583 µM; at Histone deacetylase 2 [9], 4.1 µM; at Histone deacetylase 1, 0.484 µM; in the assay with A2780 [4] it was 5.1 µM; with CAL-27 [5] it was 19.3 µM. The results for the IC50 on Histone deacetylase [6] and at Histone deacetylase [7] were 3.17 µM and 3.15 µM, respectively.
Turning to `Cc1cc(C)cc(C(=O)N(CCCCCC(=O)Nc2ccccc2N)CC(=O)NCc2ccccc2)c1`, the IC50 in assay [3] is above 10 µM; in assay [8] it was 0.25 µM; on Histone deacetylase 2 [9], 1.6 µM; at Histone deacetylase 1 it was 1.16 µM; in the assay on A2780 [4], 20.9 µM; in the assay on CAL-27 [5], 13.7 µM. The results for the half-maximal inhibitory concentration (IC50) on Histone deacetylase [6] and against Histone deacetylase [7] were 8.71 µM and 3.93 µM, respectively.
For `Cc1cc(C)cc(C(=O)N(CC(=O)NCc2ccccc2)Cc2ccc(C(=O)Nc3cc(F)ccc3N)cc2)c1`, the inhibition at Histone deacetylase 2 [1] worked out at 25%; in assay [2], 23%. Also, the IC50 in [3] was above 10 µM; at Histone deacetylase 1, 0.277 µM; with A2780 [4], 5.4 µM; in the assay on CAL-27 [5], 5.72 µM; against Histone deacetylase [6], 1.43 µM; at Histone deacetylase [7] it was 0.47 µM.
Take `Cc1cc(C)cc(C(=O)N(CC(=O)NCc2ccccc2)Cc2ccc(C(=O)Nc3ccccc3N)cc2)c1`: in assay [2], the inhibition was found to be 32%. The IC50 in assay [3] was above 10 µM; on Histone deacetylase 2 [9] it was 0.485 µM; at Histone deacetylase 1, 0.062 µM; in the assay on A2780 [4], 2.8 µM; with CAL-27 [5], 1.6 µM; against Histone deacetylase [6] it was 0.81 µM. Moreover, on Histone deacetylase [7], the IC50 was determined as 0.18 µM. The “Ratio IC50” value in the assay with CAL-27 [10] is reported as 1.7.
As for `CN(C)c1ccc(C(=O)N(CCCCCC(=O)Nc2cc(F)ccc2N)CC(=O)NCc2ccccc2)cc1`, the IC50 in [3] is above 10 µM; in assay [8], 0.369 µM; on Histone deacetylase 2 [9] it was 3.06 µM; at Histone deacetylase 1 it was 1.98 µM; in the assay with A2780 [4], 25.9 µM; in the assay on CAL-27 [5] it was 20.2 µM. The values for the IC50 at Histone deacetylase [6] and against Histone deacetylase [7] were 13.4 µM and 6.82 µM, respectively.
`Nc1ccccc1NC(=O)CCCCCN(CC(=O)NC1CCCCC1)C(=O)c1ccccc1`: the IC50 in [3] was above 10 µM; in assay [8], 0.858 µM; on Histone deacetylase 2 [9], 5.95 µM; at Histone deacetylase 1, 5.46 µM; in the assay on A2780 [4], 181 µM; in the assay on CAL-27 [5], 30.9 µM. For the same molecule, the results for the IC50 on Histone deacetylase [6] and against Histone deacetylase [7] were 43.6 µM and 21.9 µM, respectively.
In the case of `Nc1ccccc1NC(=O)c1ccc(CN(CC(=O)NCc2ccccc2)C(=O)c2cccnc2)cc1`, the IC50 was above 10 µM in assay [3]; 0.878 µM in assay [8]; 0.786 µM on Histone deacetylase 2 [9]; 0.103 µM at Histone deacetylase 1; 8.9 µM in the assay on A2780 [4]; 11.2 µM in the assay on CAL-27 [5]. Moreover, the IC50 stood at 1.06 µM against Histone deacetylase [6] and 1.01 µM against Histone deacetylase [7].
Consider `CN(C)c1ccc(C(=O)N(CCCCCC(=O)Nc2ccccc2N)CC(=O)NCc2ccccc2)cc1`, for which the IC50 in [3] is above 10 µM; in assay [8], 0.312 µM; on Histone deacetylase 2 [9], 1.24 µM; on Histone deacetylase 1 it was 1.58 µM; in the assay on A2780 [4], 18.5 µM; in the assay on CAL-27 [5], 16 µM. Moreover, the 50% inhibitory concentration (IC50) came out at 9.25 µM against Histone deacetylase [6] and 4.33 µM against Histone deacetylase [7].
For `Cc1cc(C)cc(C(=O)N(CCCCCC(=O)Nc2ccccc2N)CC(=O)NC2CCCCC2)c1`, the half-inhibitory concentration (IC50) in assay [3] was above 10 µM; in [8], 0.481 µM; on Histone deacetylase 2 [9], 6.66 µM; on Histone deacetylase 1, 5.55 µM; in the assay with A2780 [4], 42 µM; in the assay on CAL-27 [5] it was 17.5 µM. In addition, the IC50 against Histone deacetylase [6] was 22.8 µM; against Histone deacetylase [7], 12.1 µM.
As to `Nc1ccccc1NC(=O)CCCCCN(CC(=O)NC1CCCCC1)C(=O)c1cccc2ccccc12`, the IC50 is above 10 µM in [3]; 0.646 µM in [8]; 5.38 µM at Histone deacetylase 2 [9]; 6.56 µM at Histone deacetylase 1; 18.1 µM in the assay with A2780 [4]; 24.9 µM in the assay with CAL-27 [5]. In addition, the IC50 was 33.1 µM at Histone deacetylase [6] and 13 µM at Histone deacetylase [7].
`Cc1ccc(CNC(=O)CN(CCCCCC(=O)Nc2ccccc2N)C(=O)c2cc(C)cc(C)c2)cc1`: the IC50 in [3] was above 10 µM; in assay [8] it was 0.478 µM; on Histone deacetylase 2 [9], 5.03 µM; on Histone deacetylase 1, 1.1 µM; with A2780 [4] it was 9.8 µM; with CAL-27 [5], 18.2 µM. Moreover, the IC50 against Histone deacetylase [6] came to 4.48 µM; on Histone deacetylase [7], 4.57 µM.
Take `CN(C)c1ccc(C(=O)N(CC(=O)NCc2ccccc2)Cc2ccc(C(=O)Nc3cc(-c4ccccc4)ccc3N)cc2)cc1`: the figures for the inhibition (at Histone deacetylase 2 [11]; in assay [2]) were 36% and below 15%, respectively. In addition, the IC50 was above 10 µM in assay [3]; above 10 µM in assay [8]; 0.039 µM on Histone deacetylase 1; 11.1 µM in the assay on CAL-27 [5]; 2.62 µM against Histone deacetylase [6]; 0.85 µM on Histone deacetylase [7]. The result with A2780 [12] was inactive.
Consider `Nc1ccccc1NC(=O)CCCCCN(CC(=O)NCc1ccccc1)C(=O)c1cccc2ccccc12`, for which the IC50 in [3] was above 10 µM; in assay [8], 0.163 µM; on Histone deacetylase 2 [9] it was 1.9 µM; at Histone deacetylase 1, 1.67 µM; in the assay with A2780 [4], 22.8 µM; in the assay with CAL-27 [5] it was 11 µM. For the same molecule, the results for the IC50 on Histone deacetylase [6] and against Histone deacetylase [7] were 10.2 µM and 4.13 µM, respectively.
